Assay results from ChEMBL document CHEMBL1135951, “Potential anxiolytic agents. Part 4: novel orally-active N(5)-substituted pyrido[1,2-a]benzimidazoles with high GABA-A receptor affinity” (Bioorg Med Chem Lett, 2002).

What was measured:
Mus musculus [1] = test: Effective dose required for inhibition of pentylenetetrazole (PTZ)-induced seizures in mice intraperitoneally; assay type: functional; details: ip
[2] = target: GABA-A receptor; anion channel; test: In vitro affinity for BZD site on GABA-A receptor from rat cerebral cortex using radioligand [3H]flunitrazepam; assay type: tissue-based
Mus musculus [3] = organism: Mus musculus; test: Effective dose required for inhibition of pentylenetetrazole (PTZ)-induced seizures in mice perorally; assay type: functional; details: po
[4] = target: T1, GABA-A receptor; anion channel (Rattus norvegicus) (UniProt O09028+P15431+P18506+P18508+P19969+P20236+P23574+P23576+P28471+P28473+P30191+P62813+P63079+P63138+Q91ZM7+Q9ES14); test: Ratio of the binding in the absence and presence of GABA was determined.; assay type: protein-complex assay
Rattus norvegicus [5] = organism: Rattus norvegicus; test: Minimum effective dose required for anticonflict in rat perorally; assay type: functional; details: po, read-out: MED
[6] = target: T1, GABA-A receptor; anion channel (Rattus norvegicus); test: Minimum effective dose required for anticonflict in rat intraperitoneally; assay type: functional
Mus musculus [7] = organism: Mus musculus; test: Effective dose required for inhibition of pentylenetetrazole (PTZ)-induced seizures in mice perorally; value ranges from 3 to 30; assay type: functional; details: po
Rattus norvegicus [8] = test: In vivo minimum effective dose required for anticonflict in rat intraperitoneally; assay type: functional; details: Rattus norvegicus, ip; read-out: MED
Rattus norvegicus [9] = test: In vivo minimum effective dose required for potentiation of EtOH-induced sleep time in rat; assay type: functional; details: Rattus norvegicus; read-out: MED
Mus musculus [10] = organism: Mus musculus; test: Ratio of effective dose required for motor impairment in the horizontal screen to the inhibition of pentylenetetrazole (PTZ)-induced seizures in mice; assay type: functional
Mus musculus [11] = test: In vivo effective dose required or inhibition of pentylenetetrazole (PTZ)-induced seizures in mice intraperitoneally; assay type: functional; details: ip
Mus musculus [12] = test: Effective dose required for motor impairment in the horizontal screen in mouse intraperitoneally; assay type: functional; details: Mus musculus, ip; read-out: ED50
Rattus norvegicus [13] = organism: Rattus norvegicus; test: Ratio of minimum effective dose for potentiation of EtOH-induced sleep time to anticonflict effect in rat; assay type: functional
Rattus norvegicus [14] = test: In vivo minimum effective dose required for anticonflict effect in rat perorally; assay type: functional; details: Rattus norvegicus, po; read-out: MED
Mus musculus [15] = organism: Mus musculus; test: Effective dose required for motor impairment in the horizontal screen in mouse perorally; assay type: functional; details: Mus musculus, po; read-out: ED50
Mus musculus [16] = test: In vivo effective dose required for inhibition of pentylenetetrazole (PTZ)-induced seizures in mice perorally; assay type: functional; details: po
Mus musculus [17] = test: In vivo effective dose required in vivo for inhibition of pentylenetetrazole (PTZ)-induced seizures in mice perorally; assay type: functional; details: po
Mus musculus [18] = test: In vivo effective dose required for inhibition of pentylenetetrazole (PTZ)-induced seizures in mice intraperitoneally; assay type: functional; details: Mus musculus, ip; read-out: ED50

SMILES | IC50 [2] [nM] | GABA shift [4] | MED [6] [mg/kg] | ED50 (Mus musculus [1]) [mg/kg] | ED50 (Mus musculus [3]) [mg/kg] | minimal effective dose (Rattus norvegicus [5]) [mg/kg] | also measured
CC(=O)OCCN1C2=C(C(=O)Nc3ccccc3F)C(=O)CCN2c2ccc(F)cc21 | 0.2 | 1.2 |  | ≤ 1 | 3 | 3 | 
CCOCN1C2=C(C(=O)Nc3ccccc3F)C(=O)CCN2c2ccc(F)cc21 | 0.1 | 1.2 | 10 | 0.01 | 0.04 | 0.4 | minimal effective dose (Rattus norvegicus [8]): 10 mg/kg; minimal effective dose (Rattus norvegicus [9]): 0.3 mg/kg; Ratio (Mus musculus [10]): 675; ED50 (Mus musculus [11]): 0.01 mg/kg; ED50 (Mus musculus [12]): 0.3 mg/kg; Ratio (Rattus norvegicus [13]): 1; minimal effective dose (Rattus norvegicus [14]): 0.4 mg/kg; ED50 (Mus musculus [15]): 27 mg/kg; ED50 (Mus musculus [16]): 0.04 mg/kg
CCOCN1C2=C(C(=O)Nc3ccc(F)cc3F)C(=O)CCN2c2ccc(F)cc21 | 1.2 | 2 | 0.1 | ≤ 1 | < 3 | 0.1 | ED50 (Mus musculus [17]): < 3 mg/kg; minimal effective dose (Rattus norvegicus [8]): 0.1 mg/kg; minimal effective dose (Rattus norvegicus [9]): 0.1 mg/kg; Ratio (Mus musculus [10]): 3; ED50 (Mus musculus [12]): < 1 mg/kg; Ratio (Rattus norvegicus [13]): 1; minimal effective dose (Rattus norvegicus [14]): 0.1 mg/kg; ED50 (Mus musculus [18]): < 1 mg/kg; ED50 (Mus musculus [15]): 10 mg/kg
CN(C)CCN1C2=C(C(=O)Nc3ccccc3F)C(=O)CCN2c2ccc(F)cc21 | 49.9 | 2.7 | < 10 | 0.5 | ≤ 3 | 3 | 
CCOCN1C2=C(C(=O)Nc3ccc(C)s3)C(=O)CCN2c2ccc(F)cc21 | 0.7 | 2.3 |  | ≤ 1 | 0.5 | 0.3 | 
O=C1CCN2C(=C1C(=O)Nc1ccccc1F)N(CCc1ccccn1)c1cc(F)ccc12 | 0.9 | 2 | 10 | 0.3 | 10 | > 10 | 
CCOCN1C2=C(C(=O)Nc3sccc3Cl)C(=O)CCN2c2ccc(F)cc21 | 0.7 | 1.6 |  | ≤ 1 | 10 | > 10 | 

Further lines, with some results ahead:

IC50 [2] [nM] | GABA shift [4] | MED [6] [mg/kg] | SMILES | ED50 (Mus musculus [1]) [mg/kg] | ED50 (Mus musculus [3]) [mg/kg] | minimal effective dose (Rattus norvegicus [5]) [mg/kg] | also measured
1.6 | 2.6 |  | O=C1CCN2C(=C1C(=O)Nc1ccccc1F)N(CCn1ccnc1)c1cc(F)ccc12 | 1 | 10 | > 10 | 
0.5 | 3.2 | < 10 | CCOCCN1C2=C(C(=O)Nc3ccccc3F)C(=O)CCN2c2ccc(F)cc21 | ≤ 1 | 0.3 | 1 | 
0.5 | 2.8 |  | CCOCN1C2=C(C(=O)Nc3ccccc3F)C(=O)CCN2c2ccc(Cl)cc21 | < 1 | 2 | > 10 | 
 | 1.8 | 10 | O=C(Nc1ccccc1F)C1=C(O)CCn2c1nc1cc(F)ccc12 | ≤ 1 | > 30 | > 30 | 
3.3 | 1.4 | 10 | CN(C)CCCN1C2=C(C(=O)Nc3ccccc3F)C(=O)CCN2c2ccc(F)cc21 | 3 | 30 | > 10 | 
5.6 | 1.7 |  | N=C(N)NCCN1C2=C(C(=O)Nc3ccccc3F)C(=O)CCN2c2ccc(F)cc21 | > 1 | > 30 | > 10 | 
35 | 2.1 |  | CN(C)/C=N/CCN1C2=C(C(=O)Nc3ccccc3F)C(=O)CCN2c2ccc(F)cc21 | ≤ 1 | 30 | 30 | 
4.3 | 3.2 |  | CCOCN1C2=C(C(=O)Nc3ccc(OC(=O)OC)cc3F)C(=O)CCN2c2ccc(F)cc21 | 1 |  | 1 | ED50 (Mus musculus [7]): 3 mg/kg
6.1 | 2.2 | > 10 | O=C1CCN2C(=C1C(=O)Nc1ccccc1F)N(CCN1CCOCC1)c1cc(F)ccc12 | 1 | 30 |  | 
151 | 2 |  | CCOCN1C2=C(C(=O)Nc3ccccc3F)C(=O)CCN2c2ccccc21 | > 1 | 3 | 10 | 
13.3 | 2.9 |  | CCOCN1C2=C(C(=O)Nc3ccccc3F)C(=O)CCN2c2cc(F)cc(F)c21 |  |  | > 10 | 
